This note sets out measurements from patent US20250250230A1, “HETEROCYCLIC COMPOUND” (TAKEDA PHARMACEUTICAL COMPANY LIMITED, priority 2022, published 2025).

The assay has as its target T1, human orexin type 2 receptor (Homo sapiens, UniProt O43614).
T1 construct: expressed in transfected cells
T1 sequence (O43614 1-444): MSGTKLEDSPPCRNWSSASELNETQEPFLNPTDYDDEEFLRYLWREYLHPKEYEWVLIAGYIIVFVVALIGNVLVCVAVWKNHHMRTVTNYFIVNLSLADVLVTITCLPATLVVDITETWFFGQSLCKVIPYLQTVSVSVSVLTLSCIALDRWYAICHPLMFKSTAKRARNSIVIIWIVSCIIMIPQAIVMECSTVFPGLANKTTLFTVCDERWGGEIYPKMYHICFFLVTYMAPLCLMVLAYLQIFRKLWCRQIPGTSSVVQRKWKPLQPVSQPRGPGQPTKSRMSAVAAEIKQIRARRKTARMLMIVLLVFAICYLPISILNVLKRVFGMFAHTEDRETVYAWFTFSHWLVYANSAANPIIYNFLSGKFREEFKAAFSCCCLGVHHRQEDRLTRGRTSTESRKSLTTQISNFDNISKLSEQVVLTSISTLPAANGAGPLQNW
Briefly: Measurement of orexin type 2 receptor agonist activity (calcium fluorescence, Fluo-4 AM, FDSS). Format: cell-based. To be noted: test compound 3 μM; CHO cells expressing human OX2 receptor; DMSO = 0%, orexin A (human) = 100%. Summed up: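 Agonist response scaled between vehicle (0%) and human orexin A at 10 nM final (100%), from 2-min kinetic Fluo-4 fluorescence reads. Stable hOX2R CHO-K1 clone, dye-loaded in HBSS/20 mM HEPES/0.1% BSA with 1.25 mM probenecid before compound addition.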
Take `CS(=O)(=O)NCC1CCCN(C(=O)C2CC2c2ccccc2-c2c(F)cccc2F)C1` (racemic) [Example 128, a mixture of rac-N-({(3R)-1-[(1R,2R)-2-(2′,6′-difluoro[1,1′-biphenyl]-2-yl)cyclopropane-1-carbonyl]piperidin-3-yl}methyl)methanesulfonamide and rac-N-({(3S)-1-[(1R,2R)-2-(2′,6′-difluoro[1,1′-biphenyl]-2-yl)cyclopropane-1-carbonyl]piperidin-3-yl}methyl)methanesulfonamide]: the “OX2R agonist activity (3 μM, %)” value stood at 89%.

With `CS(=O)(=O)NC1CN(C(=O)C2CC2c2ccccc2-c2c(F)cccc2F)CCC1(F)F` (racemic) [Example 129, a mixture of rac-N-{(3R)-1-[(1R,2R)-2-(2′,6′-difluoro[1,1′-biphenyl]-2-yl)cyclopropane-1-carbonyl]-4,4-difluoropiperidin-3-yl}methanesulfonamide and rac-N-{(3S)-1-[(1R,2R)-2-(2′,6′-difluoro[1,1′-biphenyl]-2-yl)cyclopropane-1-carbonyl]-4,4-difluoropiperidin-3-yl}methanesulfonamide], the “OX2R agonist activity (3 μM, %)” value was found to be 101%.

As for `CS(=O)(=O)NC1CN(C(=O)C2CC2c2ccccc2-c2c(F)cccc2F)CC1(F)F` (racemic) [Example 130, a mixture of rac-N-{(3R)-1-[(1R,2R)-2-(2′,6′-difluoro[1,1′-biphenyl]-2-yl)cyclopropane-1-carbonyl]-4,4-difluoropyrrolidin-3-yl}methanesulfonamide and rac-N-{(3S)-1-[(1R,2R)-2-(2′,6′-difluoro[1,1′-biphenyl]-2-yl)cyclopropane-1-carbonyl]-4,4-difluoropyrrolidin-3-yl}methanesulfonamide], the “OX2R agonist activity (3 μM, %)” value is 87%.

Consider `CS(=O)(=O)NC1CCN(C(=O)C2CC2c2ccc(F)cc2-c2ccccc2Cl)C1` (racemic) [Example 134, a mixture of rac-N-{(3R)-1-[(1R,2R)-2-(2′-chloro-5-fluoro[1,1′-biphenyl]-2-yl)cyclopropane-1-carbonyl]pyrrolidin-3-yl}methanesulfonamide and rac-N-{(3S)-1-[(1R,2R)-2-(2′-chloro-5-fluoro[1,1′-biphenyl]-2-yl)cyclopropane-1-carbonyl]pyrrolidin-3-yl}methanesulfonamide], for which the “OX2R agonist activity (3 μM, %)” value came to 74%.

For `CS(=O)(=O)NC1CCN(C(=O)C2CC2c2ccc(F)cc2-c2c(F)cccc2F)C1` (racemic) [Example 135, a mixture of rac-N-{(3R)-1-[(1R,2R)-2-(2′,5,6′-trifluoro[1,1′-biphenyl]-2-yl)cyclopropane-1-carbonyl]pyrrolidin-3-yl}methanesulfonamide and rac-N-{(3S)-1-[(1R,2R)-2-(2′,5,6′-trifluoro[1,1′-biphenyl]-2-yl)cyclopropane-1-carbonyl]pyrrolidin-3-yl}methanesulfonamide], the “OX2R agonist activity (3 μM, %)” value was determined as 111%.

For the compound `Cc1ccc(C2CC2C(=O)N2CCC(NS(C)(=O)=O)C2)c(-c2c(F)cccc2F)c1` (racemic) [Example 136, a mixture of rac-N-{(3R)-1-[(1R,2R)-2-(2′,6′-difluoro-5-methyl[1,1′-biphenyl]-2-yl)cyclopropane-1-carbonyl]pyrrolidin-3-yl}methanesulfonamide and rac-N-{(3S)-1-[(1R,2R)-2-(2′,6′-difluoro-5-methyl[1,1′-biphenyl]-2-yl)cyclopropane-1-carbonyl]pyrrolidin-3-yl}methanesulfonamide], the “OX2R agonist activity (3 μM, %)” value was found to be 110%.

Turning to `CS(=O)(=O)NC1CN(C(=O)C2CC2c2ccccc2-c2c(F)cccc2F)CC1F` (racemic) [Example 137, a mixture of rac-N-{(3S,4R)-1-[(1R,2R)-2-(2′,6′-difluoro[1,1′-biphenyl]-2-yl)cyclopropane-1-carbonyl]-4-fluoropyrrolidin-3-yl}methanesulfonamide and rac-N-{(3R,4S)-1-[(1R,2R)-2-(2′,6′-difluoro[1,1′-biphenyl]-2-yl)cyclopropane-1-carbonyl]-4-fluoropyrrolidin-3-yl}methanesulfonamide], the “OX2R agonist activity (3 μM, %)” value amounted to 59%.

As to `Cc1ccc(C2CC2C(=O)N2CCC(NS(C)(=O)=O)C2)c(-c2ccccc2Cl)c1` (racemic) [Example 145, a mixture of rac-N-{(3R)-1-[(1R,2R)-2-(2′-chloro-5-methyl[1,1′-biphenyl]-2-yl)cyclopropane-1-carbonyl]pyrrolidin-3-yl}methanesulfonamide and rac-N-{(3S)-1-[(1R,2R)-2-(2′-chloro-5-methyl[1,1-biphenyl]-2-yl)cyclopropane-1-carbonyl]pyrrolidin-3-yl}methanesulfonamide], the “OX2R agonist activity (3 μM, %)” value was found to be 94%.

Take `CS(=O)(=O)NC1CCCN(C(=O)C2CC2c2ccc(F)cc2-c2c(F)cccc2F)C1` (racemic) [Example 152, a mixture of rac-N-{(3R)-1-[(1R,2R)-2-(2′,5,6′-trifluoro[1,1′-biphenyl]-2-yl)cyclopropane-1-carbonyl]piperidin-3-yl}methanesulfonamide and rac-N-{(3S)-1-[(1R,2R)-2-(2′,5,6′-trifluoro[1,1′-biphenyl]-2-yl)cyclopropane-1-carbonyl]piperidin-3-yl}methanesulfonamide]: the “OX2R agonist activity (3 μM, %)” value amounted to 95%.

On to `CS(=O)(=O)NC1CCCN(C(=O)C2CC2c2ccc(F)cc2-c2c(F)cccc2F)CC1` (racemic) [Example 153, a mixture of rac-N-{(4R)-1-[(1R,2R)-2-(2′,5,6′-trifluoro[1,1′-biphenyl]-2-yl)cyclopropane-1-carbonyl]azepan-4-yl}methanesulfonamide and rac-N-{(4S)-1-[(1R,2R)-2-(2′,5,6′-trifluoro[1,1′-biphenyl]-2-yl)cyclopropane-1-carbonyl]azepan-4-yl}methanesulfonamide], for which the “OX2R agonist activity (3 μM, %)” value amounted to 100%.

`CC1CC(NS(C)(=O)=O)CN(C(=O)C2CC2c2ccccc2-c2c(F)cccc2F)C1` (racemic) [Example 158]: the “OX2R agonist activity (3 μM, %)” value amounted to 106%.

On to `CCS(=O)(=O)NC1CCCCN(C(=O)C2CC2c2ccccc2-c2c(F)cccc2F)C1` (racemic) [Example 159, a mixture of rac-N-{(3R)-1-[(1R,2R)-2-(2′,6′-difluoro[1,1′-biphenyl]-2-yl)cyclopropane-1-carbonyl]azepan-3-yl}ethanesulfonamide and rac-N-{(3S)-1-[(1R,2R)-2-(2′,6′-difluoro[1,1′-biphenyl]-2-yl)cyclopropane-1-carbonyl]azepan-3-yl}ethanesulfonamide], for which the “OX2R agonist activity (3 μM, %)” value is 101%.

In the case of `O=C(C1CC1c1ccccc1-c1c(F)cccc1F)N1CCCCC(NS(=O)(=O)C2CC2)C1` (racemic) [Example 161, a mixture of rac-N-{(3R)-1-[(1R,2R)-2-(2′,6′-difluoro[1,1′-biphenyl]-2-yl)cyclopropane-1-carbonyl]azepan-3-yl}cyclopropanesulfonamide and rac-N-{(3S)-1-[(1R,2R)-2-(2′,6′-difluoro[1,1′-biphenyl]-2-yl)cyclopropane-1-carbonyl]azepan-3-yl}cyclopropanesulfonamide], the “OX2R agonist activity (3 μM, %)” value worked out at 99%.
